The structures appear in SMILES notation.

T1 sequence (P00533 25-1210): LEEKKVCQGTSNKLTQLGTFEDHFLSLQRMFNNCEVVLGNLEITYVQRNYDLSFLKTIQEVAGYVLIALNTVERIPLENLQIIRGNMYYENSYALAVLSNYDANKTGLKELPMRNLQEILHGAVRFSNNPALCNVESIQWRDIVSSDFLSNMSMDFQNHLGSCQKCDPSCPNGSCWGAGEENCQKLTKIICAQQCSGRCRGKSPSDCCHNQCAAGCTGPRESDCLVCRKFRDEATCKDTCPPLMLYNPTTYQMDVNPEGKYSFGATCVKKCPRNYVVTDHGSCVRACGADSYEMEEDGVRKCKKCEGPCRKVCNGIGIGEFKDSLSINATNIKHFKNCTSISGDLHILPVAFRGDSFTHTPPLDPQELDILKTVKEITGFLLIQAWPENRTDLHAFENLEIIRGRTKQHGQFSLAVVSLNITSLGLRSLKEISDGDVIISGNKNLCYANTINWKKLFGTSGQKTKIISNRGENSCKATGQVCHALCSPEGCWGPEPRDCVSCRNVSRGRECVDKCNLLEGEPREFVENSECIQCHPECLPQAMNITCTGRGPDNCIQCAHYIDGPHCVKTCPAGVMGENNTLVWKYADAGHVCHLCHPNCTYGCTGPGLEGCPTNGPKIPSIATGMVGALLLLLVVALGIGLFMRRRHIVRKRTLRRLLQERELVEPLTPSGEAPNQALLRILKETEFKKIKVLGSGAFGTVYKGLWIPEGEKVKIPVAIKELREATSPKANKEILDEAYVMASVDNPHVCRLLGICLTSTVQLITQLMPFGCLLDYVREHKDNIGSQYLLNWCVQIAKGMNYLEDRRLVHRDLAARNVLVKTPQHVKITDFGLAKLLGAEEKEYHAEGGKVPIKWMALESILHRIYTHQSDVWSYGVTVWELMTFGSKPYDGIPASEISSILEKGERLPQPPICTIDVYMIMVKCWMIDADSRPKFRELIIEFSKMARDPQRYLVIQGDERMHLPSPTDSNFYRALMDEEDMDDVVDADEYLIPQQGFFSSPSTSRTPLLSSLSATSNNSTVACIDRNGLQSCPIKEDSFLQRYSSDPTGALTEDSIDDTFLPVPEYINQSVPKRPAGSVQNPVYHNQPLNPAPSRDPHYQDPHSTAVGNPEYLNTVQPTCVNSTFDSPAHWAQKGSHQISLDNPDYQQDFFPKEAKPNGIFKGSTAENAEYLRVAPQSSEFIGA

System in the first data set: not given
Test: not given
Conditions: not given
The melting point is the temperature, or range, at which the solid turns liquid. Compound `CN(CC=CC(=O)Nc1cc2c(Nc3ccc(F)c(Cl)c3)ncnc2cc1OCC1CC1)CC1OCCO1` [1(2), 4-[(3-chloro-4-fluorophenyl)amino]-6-[(4-{N-[(1,3-dioxolan-2-yl)methyl]-N-methylamino}-1-oxo-2-buten-1-yl)amino]-7-cyclopropylmethoxyquinazoline] came in with a melting point of 121 °C.

`C[C@H]1C(=O)OCCN1CC=CC(=O)Nc1cc2c(Nc3ccc(F)c(Cl)c3)ncnc2cc1OCC1CC1` [Example 2(2), 4-[(3-chloro-4-fluorophenyl)amino]-6-{[4-((S)-3-methyl-2-oxomorpholin-4-yl)-1-oxo-2-buten-1-yl]amino}-7-cyclopropylmethoxyquinazoline] displayed a melting point of 182 °C.

`C[C@@H]1CN(CC=CC(=O)Nc2cc3c(Nc4ccc(F)c(Cl)c4)ncnc3cc2O[C@@H]2CCOC2)CC(=O)O1` [Example 2(7), 4-[(3-chloro-4-fluorophenyl)amino]-6-{[4-((R)-6-methyl-2-oxomorpholin-4-yl)-1-oxo-2-buten-1-yl]amino}-7-[(R)-(tetrahydrofuran-3-yl)oxy]quinazoline] had a melting point of 230 °C.

As for `C[C@@H]1CN(CC=CC(=O)Nc2cc3c(Nc4ccc(F)c(Cl)c4)ncnc3cc2OCC2CCOCC2)CC(=O)O1` [Example 2(19), 4-[(3-chloro-4-fluorophenyl)amino]-6-{[4-((R)-6-methyl-2-oxomorpholin-4-yl)-1-oxo-2-buten-1-yl]amino}-7-[(tetrahydropyran-4-yl)methoxy]quinazoline], the melting point came out at 196 °C.

Compound `C[C@H]1CN(CC=CC(=O)Nc2cc3c(Nc4ccc(F)c(Cl)c4)ncnc3cc2OCC2CCOCC2)CC(=O)O1` [Example 2(21), 4-[(3-chloro-4-fluorophenyl)amino]-6-{[4-((S)-6-methyl-2-oxomorpholin-4-yl)-1-oxo-2-buten-1-yl]amino}-7-[(tetrahydropyran-4-yl)methoxy]quinazoline] came in with a melting point of 196 to 199 °C.

Another data set has as its target T1, human EGF-R (Homo sapiens, UniProt P00533).
T1 construct: expressed in transfected cells; host or cells: F/L-HERc cells (murine IL-3-dependent FDC-P1 line transduced with LXSN retroviral vector carrying human EGF-R cDNA; packaging line GP+E86)
As to the kind of experiment: Inhibition of EGF-dependent proliferation of F/L-HERc cells (Cell Titer 96 assay). It is filed as cell-based. Particulars: F/L-HERc cells (murine IL-3-dependent line expressing human EGF-R), stimulated with EGF 20 ng/ml, 48 hours at 37° C. The text has this: A cell line of murine origin dependent on interleukin-3-(IL-3) which was genetically modified to express functional human EGF-R was used here. The proliferation of these cells known as F/L-HERc can therefore be stimulated either by murine IL-3 or by EGF (cf. T. von Rüden et al. in EMBO J. 7, 2749-2756 (1988) and J. H. Pierce et al. in Science 239, 628-631 (1988)).
The starting material used for the F/L-HERc cells was the cell line FDC-P1, the production of which has been described by T. M. Dexter et al. in J. Exp. Med. 152, 1036-1047 (1980). Alternatively, however, other growth-factor-dependent cells may also be used (cf., for example, J. H. Pierce et al. in Science 239, 628-631 (1988), H. Shibuya et al. in Cell 70, 57-67 (1992) and W. S. Alexander et al. in EMBO J. 10, 3683-3691 (1991)). For expressing the human EGF-R cDNA (cf. A. Ullrich et al. in Nature 309, 418-425 (1984)) recombinant retroviruses were used as described by T. von Rüden et al., EMBO J. 7, 2749-2756 (1988), except that the retroviral vector LXSN (cf. A. D. Miller et al. in BioTechniques 7, 980-990 (1989)) was used for the expression of the EGF-R cDNA and the line GP+E86 (cf. D. Markowitz et al. in J. Virol. 62, 1120-1124 (1988)) was used as the packaging cell.
The test was performed as follows:
F/L-HERc cells were cultivated in RPMI/1640 medium (Bio Whittaker), supplemented with 10% fetal calf serum (FCS, Boehringer Mannheim), 2 mM glutamine (Bio Whittaker), standard antibiotics and 20 ng/ml of human EGF (Promega), at 37° C. and 5% CO2. In order to investigate the inhibitory activity of the compounds according to the invention, 1.5×10^4 cells per well were cultivated in triplicate in 96-well dishes in the above medium (200 μl), the cell proliferation being stimulated with either EGF (20 ng/ml) or murine IL-3. […]
In order to determine the inhibitory activity of the compounds according to the invention the relative cell number was measured in O.D. units using the Cell Titer 96™ Aqueous Non-Radioactive Cell Proliferation Assay (Promega). […]
The IC50 is the concentration at which inhibition is half-maximal. Low readings indicate greater potency in that assay, high ones weaker potency in that assay. For `CN(CC=CC(=O)Nc1cc2c(Nc3ccc(F)c(Cl)c3)ncnc2cc1OCC1CC1)CC1OCCO1` [1(2), 4-[(3-chloro-4-fluorophenyl)amino]-6-[(4-{N-[(1,3-dioxolan-2-yl)methyl]-N-methylamino}-1-oxo-2-buten-1-yl)amino]-7-cyclopropylmethoxyquinazoline], the IC50 was 0.02 nM.

`C[C@@H]1CN(CC=CC(=O)Nc2cc3c(Nc4ccc(F)c(Cl)c4)ncnc3cc2OCC2CC2)CC(=O)O1` [2(1), 4-[(3-chloro-4-fluorophenyl)amino]-6-{[4-((R)-6-methyl-2-oxomorpholin-4-yl)-1-oxo-2-buten-1-yl]amino}-7-cyclopropylmethoxyquinazoline] came in with an IC50 of 9 nM.

Take `C[C@H]1CN(CC=CC(=O)Nc2cc3c(Nc4ccc(F)c(Cl)c4)ncnc3cc2OCC2CC2)CC(=O)O1` [Example 2, 4-[(3-chloro-4-fluorophenyl)amino]-6-{[4-((S)-6-methyl-2-oxomorpholin-4-yl)-1-oxo-2-buten-1-yl]amino}-7-cyclopropylmethoxyguinazoline]: the IC50 amounted to 15 nM.

The record behind these values is patent US6653305B2, “Bicyclic heterocycles, pharmaceutical compositions containing them, their use, and processes for preparing them” (Boehringer Ingelheim Pharma KG, priority 2000, dated 2003).
